The source of these data is patent US20160015703A1, “NANO- MIC[…] FOR […] OF AN ACTIVE INGREDIENT” (Danmarks Tekniske Universitet, priority 2013, published 2016).

The series can be described thus: in vitro. As to conditions: human.

The molecule `CN1CCCC1c1cccnc1` (stereo not shown) [HBSS with nicotine, nicotine] showed a Papp of 8.5 ×10⁻⁶ cm/s.
